Legend:
[1] = molecular target: T1, recombinant human cIAP1-BIR3 protein (Homo sapiens, UniProt Q13490); experiment: Recombinant human c-IAP1-BIR3 biochemical assay (HTRF, peptide displacement); details: 1.2 nM cIAP1-BIR3, 3 nM AbuRPF-K(5-Fam)-NH2 peptide, read-out: Protein binding IC50 (nM) c-IAP1
T1 construct: recombinant human cIAP1-BIR3 protein; purchased Reaction biology APT-11-370
How it was run: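 1.2 nM cIAP1-BIR3 preincubated 1 h at room temperature with compound (10 points, 4-fold, top 10 uM) in 20 mM HEPES pH 7.5, 50 mM NaCl, 1 mM DTT; 3 nM AbuRPF-K(5-Fam)-NH2 then added for 1 h, then anti-6His Tb cryptate for 1 h. 520/490 nm ratio; IC50 by four-parameter logistic fit.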

[2] = molecular target: T2, recombinant human cIAP2-BIR3 protein (Homo sapiens, UniProt Q13489); experiment: Recombinant human c-IAP2-BIR3 biochemical assay (HTRF, peptide displacement); details: 3.7 nM cIAP2-BIR3, 3.7 nM AbuRPF-K(5-Fam)-NH2 peptide, read-out: Protein binding IC50 (nM) c-IAP2
T2 construct: recombinant human cIAP2-BIR3 protein; purchased Reaction biology APT-11-372
How it was run: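 3.7 nM protein pre-incubated 1 h at room temperature with compounds (top 10 uM, 4-fold, 10 points) in 20 mM HEPES pH 7.5, 50 mM NaCl, 0.005% Tween-20, 1 mM DTT. Then 3.7 nM AbuRPF-K(5-Fam)-NH2 for 1 h, then anti-6His Tb cryptate 1 h. IC50 from 520/490 nm HTRF ratio, four-parameter logistic fit.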

[3] = molecular target: T3, recombinant human XIAP-BIR3 protein (Homo sapiens, UniProt P98170); experiment: Recombinant human XIAP-BIR3 biochemical assay (HTRF, peptide displacement); details: 3.7 nM XIAP-BIR3, 7.6 nM AbuRPF-K(5-Fam)-NH2 peptide, read-out: Protein binding IC50 (nM) XIAP
T3 construct: recombinant human XIAP-BIR3 protein; purchased Reaction biology APT-11-374
How it was run: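 3.7 nM His-tagged XIAP-BIR3 was preincubated 1 h RT with compound (top 10 µM, 4-fold, 10 points) in 20 mM HEPES pH 7.5, 50 mM NaCl, 0.005% Tween-20, 1 mM DTT. 7.6 nM AbuRPF-K(5-Fam)-NH2 peptide was then added, followed by anti-6His Tb cryptate, 1 h each. HTRF 520/490 nm ratio; four-parameter logistic IC50.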

T2 sequence (Q13489 238-349 limits assumed): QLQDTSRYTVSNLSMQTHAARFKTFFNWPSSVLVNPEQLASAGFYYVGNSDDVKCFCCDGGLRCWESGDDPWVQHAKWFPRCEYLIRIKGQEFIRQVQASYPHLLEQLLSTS
T1 sequence (Q13490 253-363 limits assumed): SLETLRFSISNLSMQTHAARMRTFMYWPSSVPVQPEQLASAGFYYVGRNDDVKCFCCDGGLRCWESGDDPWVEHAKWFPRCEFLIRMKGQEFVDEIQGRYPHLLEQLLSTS
T3 sequence (P98170 241-356 limits assumed): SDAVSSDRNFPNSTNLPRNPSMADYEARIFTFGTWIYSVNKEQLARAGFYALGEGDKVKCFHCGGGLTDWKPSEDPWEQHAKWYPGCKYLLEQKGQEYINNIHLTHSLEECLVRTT

C[C@@H]1CN(CC(=O)N2c3cc(Cc4ccc(F)cc4)c(CO)nc3OC[C@@H]2C)[C@@H](CN2CCOCC23CCC3)CN1 [Compound 56, 2-((2R,5R)-2-((8-oxa-5-azaspiro[3.5]nonan-5-yl)methyl)-5-methylpiperazin-1-yl)-1-((S)-7-(4-fluorobenzyl)-6-(hydroxymethyl)-2-methyl-2,3-dihydro-1H-pyrido[2,3-b][1,4]oxazin-1-yl)ethan-1-one]
IC50 [1]: 1 nM
IC50 [2]: 2.2 nM
IC50 [3]: 30 nM

C[C@@H]1CN(CC(=O)N2CCOc3nc(C4CC4)c(Cc4ccc(F)cc4)cc32)[C@@H](CN2CCOC[C@H]2C)CN1 [Compound 6, 1-(6-cyclopropyl-7-(4-fluorobenzyl)-2,3-dihydro-1H-pyrido[2,3-b][1,4]oxazin-1-yl)-2-((2R,5R)-5-methyl-2-(((R)-3-methylmorpholino)methyl)piperazin-1-yl)ethan-1-one]
IC50 [1]: 1.1 nM
IC50 [2]: 3 nM
IC50 [3]: 61 nM

CC1COc2ncc(Cc3ccc(F)cc3)cc2N1C(=O)CN1C[C@@H](C)NC[C@@H]1CN1CCOC[C@H]1C (stereo partly drawn) [Compound 19, 1-(7-(4-fluorobenzyl)-2-methyl-2,3-dihydro-1H-pyrido[2,3-b][1,4]oxazin-1-yl)-2-((2R,5R)-5-methyl-2-(((R)-3-methylmorpholino)methyl)piperazin-1-yl)ethan-1-one]
IC50 [1]: 0.82 nM
IC50 [2]: 1.2 nM
IC50 [3]: 7.7 nM

C[C@@H]1CN(CC(=O)N2c3cc(Cc4ccc(F)cc4)c(NCC(F)(F)F)nc3OC[C@@H]2C)[C@@H](CN2[C@H](C)COC[C@H]2C)CN1 [Compound 112, 2-((2R,5R)-2-(((3R,5R)-3,5-dimethylmorpholino)methyl)-5-methylpiperazin-1-yl)-1-((S)-7-(4-fluorobenzyl)-2-methyl-6-((2,2,2-trifluoroethyl)amino)-2,3-dihydro-1H-pyrido[2,3-b][1,4]oxazin-1-yl)ethan-1-one]
IC50 [1]: 0.34 nM
IC50 [2]: 0.63 nM
IC50 [3]: 4.6 nM

C[C@@H]1CN(CC(=O)N2c3cc(Cc4ccc(F)cc4)c(C(=O)N4CCCCC4)nc3OC[C@@H]2C)[C@@H](CN2[C@H](C)COC[C@H]2C)CN1 [Compound 102, 2-((2R,5R)-2-(((3R,5R)-3,5-dimethylmorpholino)methyl)-5-methylpiperazin-1-yl)-1-((S)-7-(4-fluorobenzyl)-2-methyl-6-(piperidine-1-carbonyl)-2,3-dihydro-1H-pyrido[2,3-b][1,4]oxazin-1-yl)ethan-1-one]
IC50 [1]: 0.24 nM
IC50 [2]: 0.49 nM
IC50 [3]: 5.7 nM

C[C@@H]1CN(CC(=O)N2c3cc(Cc4ccc(F)cc4)c(C(N)=O)nc3OC[C@@H]2C)[C@@H](CN2CCOC[C@H]2C)CN1 [Compound 31, (S)-7-(4-fluorobenzyl)-2-methyl-1-(2-((2R,5R)-5-methyl-2-(((R)-3-methylmorpholino)methyl)piperazin-1-yl)acetyl)-2,3-dihydro-1H-pyrido[2,3-b][1,4]oxazine-6-carboxamide]
IC50 [1]: 0.33 nM
IC50 [2]: 0.71 nM
IC50 [3]: 5.6 nM

C[C@@H]1CN(CC(=O)N2c3cc(Cc4ccc(F)cc4)c(C(=O)Nc4ccc(F)cc4)nc3OC[C@@H]2C)[C@@H](CN2[C@H](C)COC[C@H]2C)CN1 [Example 71, (S)-1-(2-((2R,5R)-2-(((3R,5R)-3,5-dimethylmorpholino)methyl)-5-methylpiperazin-1-yl)acetyl)-7-(4-fluorobenzyl)-N-(4-fluorophenyl)-2-methyl-2,3-dihydro-1H-pyrido[2,3-b][1,4]oxazine-6-carboxamide]
IC50 [1]: 0.26 nM
IC50 [2]: 0.57 nM
IC50 [3]: 7.9 nM

C[C@@H]1CN(CC(=O)N2c3cc(Cc4ccc(F)cc4)c(CO)nc3OC[C@@H]2C)[C@@H](CN2C[C@H](C)OC[C@H]2C)CN1 [Compound 49]
IC50 [1]: 0.3 nM
IC50 [2]: 0.48 nM
IC50 [3]: 3.6 nM
